Results: patent publication US8143307B2, “Benzothiophen-2-carbonylguanidine derivatives, preparation thereof, and pharmaceutical composition containing the same” (Korea Research Institute of Chemical Technology, priority 2004, dated 2012)

Key:
[1] = test system: in vivo ischemic rat heart model; assay: Cardioprotective effect on in vivo ischemic rat heart model (coronary occlusion/reperfusion, infarct size); settings: 0.1 mg/kg intravenous, 45 min occlusion, 90 min reperfusion
Experimental: The cardioprotective effect of the benzothiophen-2-carbonylguanidine derivatives according to the present invention in in vivo ischemic hearts was judged with regard to their antischemic effects (myocardiac infarction reduction) on rats as follows.
Each male rat (300˜450 g, the Korea Research Institute of Chemical Technology, Experimental Animal Lab) was anesthetized by intraperitoneal injection with sodium pentobarbital at a dose of 75 mg/kg. Tracheotomy was performed and a tube was inserted into the trachea for subsequent artificial ventilation with a stroke volume of 10 ml/kg and a respiratory rate of 60 breaths/min. The femoral vein and the femoral artery were cannulated for the administration of the compounds and for the measurement of blood pressures, respectively. Meanwhile, the body temperature of the rats, an important factor to influence experimental results in the ischemic myocardiac injury model, was maintained constant at 37° C. using a homeothermic blanket control unit, with a body temperature-monitoring probe inserted into the rectum. Subsequently, rats were continuously measured for mean arterial blood pressure and heart rate HR throughout the experimental time period using a Statham P23XL pressure transducer (Grass Ins., Mass., USA) and an ECG/RATE Coupler (Hugo Sachs Electronic, Germany), respectively, with all continuous changes thereof recorded by Graphtec Linearcorder WR 3310 (Hugo Sachs Electronic).
The left coronary artery was occluded according to Selye H.'s method. In detail, after the chest of each rat was partially opened by left thoracotomy, the middle finger of the left hand was pressed against the right side of the chest of the rat to thrust out the heart which was then slightly fixed with the forefinger and the thumb of the same hand. Then, immediately after the left anterior descending coronary artery (LAD) was sutured with a 5-0 silk ligature, the heart was repositioned back in the thoracic cavity with both ends of the suture positioned outside. The ends of the suture were threaded through a PE tube (PE100, 2.5 cm) and allowed to stand for 20 min for stabilization. Through the cannula inserted into the femoral vein, a vehicle or the compounds of the invention were administered and 30 min was needed for sufficient effects of the administered compounds. Cariporide was used as a control. The ends of the suture threaded through the PE tube were pulled taut with hemostatic forceps to vertically press the PE tube against the coronary artery. After occlusion for 45 min, the hemostatic forceps were removed and reperfusion was conducted for 90 min.
The coronary artery was reoccluded in the same manner as described above, followed by the intravenous injection of 2 ml of 1% Evans blue. The intravenous injection of an excess of pentobarbital killed the rats, from which the hearts were then excised. The left ventricle was removed alone from the isolated heart and transected from the cardiac apex into 5 or 6 slices. Each slice was weighed. The image of each of the heart slices was captured using a Hi-scope, a compact vision system, and analyzed for blue-stained normal areas and non-stained areas with an image analyzing program (Image Pro Plus). In each slice, the area at risk (AAR) was calculated by multiplying the ratio of the non-stained area to the total area of the slice with the weight of the slice. Sum of the individual area at risk (AAR) for each slice was divided by the total weight of the left ventricle to obtain AAR (%) according to the following mathmatical formula 1.
Separately, the heat slices were incubated in 1%. 2,3,5-triphenyltetrazolium chloride (TTC) phosphate buffer (pH 7.4), 37° C., for 15 min and fixed in 10% formalin for 20˜24 hours. In the normal area of the tissue, 2,3,5-triphenyltetrazolium chloride was reduced by the myocardial dehydrogenase in the presence of the cofactor NADH to form formazan dye, which appeared as a brick-red color. […]

Human NHE-1 = molecular target: T1, Human NHE-1 (Homo sapiens, UniProt P19634); assay: Inhibitory effect on NHE-1 in PS120/NHE-1 cells (recovery from intracellular acidosis, BCECF fluorescence); type: cell-based; settings: human NHE-1 expressed PS120 cells; concentration at which recovery from intracellular acidosis was 50% inhibited
T1 construct: expressed in transfected cells; host or cells: CCL39-derived PS120 cells (PS120/NHE-1)
T1 sequence (P19634 whole entry): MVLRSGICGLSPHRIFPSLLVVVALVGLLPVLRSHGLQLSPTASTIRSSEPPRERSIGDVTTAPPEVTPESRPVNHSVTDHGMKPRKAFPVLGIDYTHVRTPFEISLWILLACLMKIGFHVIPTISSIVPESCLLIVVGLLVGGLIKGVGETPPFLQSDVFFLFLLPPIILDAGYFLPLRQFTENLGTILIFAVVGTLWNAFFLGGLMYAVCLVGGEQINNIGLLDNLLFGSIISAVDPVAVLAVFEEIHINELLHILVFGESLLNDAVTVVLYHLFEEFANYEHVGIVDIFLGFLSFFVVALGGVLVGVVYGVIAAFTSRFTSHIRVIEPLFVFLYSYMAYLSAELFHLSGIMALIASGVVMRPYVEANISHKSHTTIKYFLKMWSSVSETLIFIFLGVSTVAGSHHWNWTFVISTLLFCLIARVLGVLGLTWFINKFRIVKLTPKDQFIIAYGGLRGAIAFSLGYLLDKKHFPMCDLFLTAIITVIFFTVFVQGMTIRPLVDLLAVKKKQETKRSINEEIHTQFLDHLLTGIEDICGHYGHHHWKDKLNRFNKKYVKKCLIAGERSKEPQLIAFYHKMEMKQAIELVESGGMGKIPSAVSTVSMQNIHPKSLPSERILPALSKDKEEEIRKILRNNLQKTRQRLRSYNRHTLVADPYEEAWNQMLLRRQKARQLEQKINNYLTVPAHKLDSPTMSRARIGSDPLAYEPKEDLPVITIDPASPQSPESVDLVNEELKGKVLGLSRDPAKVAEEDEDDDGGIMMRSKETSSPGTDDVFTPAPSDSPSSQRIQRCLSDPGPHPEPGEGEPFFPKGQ
Experimental: The benzothiophen-2-carbonylguanidine derivatives of the present invention were examined for NHE-1 inhibitory effect in cells according to the following procedure.
Human NHE-1 was expressed in CCL39-derived PS120 cells. These human NHE-1 expressed cells were cultured in DMEM (Dulbecco's modified Eagle's medium) supplemented with 10% fetal bovine serum, 1% penicillin/streptomycin (100× solution), 1% L-glutamine (200 mM aqueous solution). The PS120/NHE-1 cells grown in 100 mm dishes were treated with trypsin at 80-90% confluency, followed by washing with PBS (phosphate buffer saline) once, and then once with an Na-free buffer (138.2 mM Choline chloride, 4.9 mM KCl, […]. 2H2O, 1.2 mM MgSO4.7H2O, 1.2 mM KH2PO4, 15 mM D-glucose, 20 mM HEPES, at pH 7.4). After centrifugation, the pellet was suspended in an Na-free buffer containing 20 mM NH4Cl and 10 μM BCECF-AM [2′,7′-bis(2-carboxyethyl)-5,6-carboxy-fluorescein acetoxymethyl ester] and incubated at 37° C. for 30 min in a CO2 incubator. After being harvested by centrifugation, the PS120/NHE-1 cells were washed once with an Na-free buffer to remove both NH4Cl and extracellular BCECF-AM, suspended at a density of 2.5×10^4 cells/10 μl and stored at 4° C. in a dark room until reuse. In each well of 96-well microplates, 180 μl of HBS (137 mM NaCl, 4.9 mM KCl, 1.5 mM CaCl2. 2H2O, 1.2 mM MgSO4.7H2O, 1.2 mM KH2PO4, 15 mM D-glucose, 20 mM HEPES, at pH 7.4) and 10 μl of DMSO or 10 μl of a solution of the compound (0.03˜10 μM) of the present invention in DMSO were placed and well mixed, after which 10 μl aliquots of the intracellular acidosis-induced PS120/NHE-1 cells were added thereto. 4 min after the cell addition, fluorescence (excitation: 485/444 nm, emission: 535 nm) was measured in the GEMINI-XS Microplate Spectrofluorometer (Molecular Devices). The fluorescence measured was converted into pH values using a high-K^+/nigericin technique. The cells in which intracellular acidosis was induced with NH4Cl prepulses, were recovered to normal pH values through the operation of NHE-1. The inhibitory effect of the compound against NHE-1 was evaluated as concentrations at which the recovery from the intracellular acidosis to a normal state was 50% inhibited (IC50 values), with cariporide used as a control.

[2] = test system: isolated ischemic rat heart; assay: Cardioprotective effect in isolated ischemic rat heart model (Langendorff); settings: 10 μM, 30 min global ischemia, 30 min reperfusion
Experimental: Male rats (300 450 g, the Korea Research Institute of Chemical Technology, Experimental Animal Lab) were anesthetized by intraperitoneal injection with sodium pentobarbital at a dose of 100 mg/kg and were intravenously administered with heparine at a dose of 1000 U/kg, followed by the excision of the heart. In detail, a tracheotomy was performed and a tracheal cannula (PE 240) was inserted into the trachea for subsequent artificial ventilation with room air using a rodent ventilator. […] A catheter tip manometer connected to a latex balloon filled with a mixture of ethanol and distilled water (1:1 v/v) was inserted via an incision in the left atrium into the left ventricle, and the intraventricular pressure thereof transmitted to the latex balloon was measured isovolumetrically with a transducer and recorded on a recording system (Linearcorder mark 8 WR 3500) with the aid of an amplifier (Plugsys bridge amplifier). After stabilizing the heart for 15 min, the balloon volume was adjusted to create a left ventricular end-diastolic pressure (LVEDP) of 5 mmHg during the initial baseline period. The volume of the balloon was maintained until the end of the experiment. Baseline heart contraction function, spontaneous heart rate (HR) and coronary flow (CF) were determined from the left ventricular contraction interval. The left ventricular developed pressure (LVDP), which is regarded as an index of contractile function of the isolated heart, was calculated by subtracting left ventricular end-diastolic pressure (LVEDP) from left ventricular peak systolic pressure (LVSP). In contrast to the heart in the body, the Langendorff heart cannot be measured for cardiac output and thus, RPP (rate-pressure product), which is an important indirect indicator for cardiac performance, was calculated by multiplying heart rate (HR) by LVDP. Throughout the experiment, the temperature of the heart was maintained constant by […] in a 37° C. physiological solution to which 95% O2/5% CO2 was continuously supplied. The heart thus stabilized was perfursed for 10 min with a solution of the compounds of the invention or control drugs in DMSO (dimethylsulfoxide) diluted with HBS (final DMSO conc. 0.04%), or with the solvent only (a negative control; 0.04% DMSO) and then measured again for contractile function, heart rate (HR) and coronary flow (CF). The supply of perfusates was completely stopped for 30 min in order to induce global ischemia in the heart, followed by reperfusion for 30 min. The indices (LVDP, HR, LVEDP, and CF) were measured again. After the reperfusion, the total level of lactate dehydrogenase (LDH) in the reperfusates was measured using a kit and taken as an index of ischemic myocardial injury. A negative control group was treated with the solvent only while cariporide was used as a positive control.

| Structure (SMILES) | Myocardiac infarction rate (IS/AAR, %) [1] [%] | IC50 (Human NHE-1) [nM] | LDH (free LDH level upon reperfusion) [2] [u/g] | LVEDP (left ventricular end-diastolic pressure) [2] [mmHg] | RPP (rate-pressure product (LVDP × HR) % relative to the value before ischemia induction) [2] [%] |
| --- | --- | --- | --- | --- | --- |
| CS(=O)(=O)O.NC(N)=NC(=O)c1cc2c(C(F)(F)F)cccc2s1 [Example 43, (4-Trifluoromethylbenzothiophene-2-Carbonyl)Guanidine Methanesulfonate] | 44.8 | 400 | 5.2 | 5.8 | 80.6 |
| CCc1cccc2sc(C(=O)N=C(N)N)cc12.CS(=O)(=O)O [Example 37, (4-Ethylbenzothiophene-2-Carbonyl)Guanidine Methanesulfonate] | 51.6 | 270 | 7.1 | 37.7 | 43.4 |
